Values of other authors, collected in patent US6829374B2, “Methods for measuring iris color over time” (Glaucoma Research, Inc., priority 2001, dated 2004).

Test system: iris color
Details: ocular medication, recent studies

| SMILES | change in iris color |
| --- | --- |
| CC(C)OC(=O)CCC/C=C\C[C@@H]1[C@@H](CC[C@@H](O)CCc2ccccc2)[C@H](O)C[C@@H]1O [latanoprost] | change in iris color |
| CCCCCCCC(=O)CC[C@@H]1[C@@H](C/C=C\CCCC(=O)O)[C@@H](O)C[C@H]1O [unoprostone] | change in iris color |
